# Assay results from patent publication US12637461B2, “Compounds for the activation of AMPK” (PFIZER INC., priority 2022, dated 2026).
# Biological target: T1, human AMPK α2β2γ3 (Homo sapiens, UniProt O43741+P54646+Q9UGI9)
# T1 construct: expressed in transfected cells; host or cells: HEK293AD cells, MaxCyte bulk electroporation
# Assay: Primary cellular assay: γ3 associated phospho-Thr172 AMPK detection (custom pAMPK Surefire AlphaLISA) in α2β2γ3 bulk transiently transfected HEK293 cells
# Type: cell-based
# Settings: activation of human AMPK α2β2γ3 (γ3 pThr172 AMPK signal) in transiently transfected HEK293 cells, 20 minutes compound incubation; for Emax: 20 min, read-out: Assay GMean Asy. Max (%); for EC50: geometric mean EC50, read-out: Assay GMean EC50
# Experimental: Primary Cellular Assay—γ3 Associated Phospho-Thr172 AMPK Detection in α2β2γ3 Bulk Transiently Transfected HEK293 Cells
# The cellular potencies of the compounds were evaluated using a custom pAMPK Surefire AlphaLISA designed to assess γ3 associated phospho-Thr172 AMPK and modulation by small molecules in AMPK α2β2γ3 transiently transfected HEK293 cells.
# A pAMPK Surefire AlphaLISA (PE-ASLU-PAMPK) assay available through Perkin Elmer was modified to selectively assess γ3 pThr172 AMPK content (as opposed to total pThr172 AMPK) by labeling a γ3 antibody with a CaptSure™ tag and substituting it for the total α1c/α2 AMPK labeled antibodies in the kit. In the modified assay, the overall abundance of γ3 AMPK is recognized by the CaptSure γ3 antibody and the phosphorylated AMPK is recognized by biotinylated pThr172 antibody. Subsequent reactivity with streptavitin donor beads and anti CaptSure conjugated acceptor beads brings the molecules into close proximity. Upon excitation at 680 nm, the donor bead converts ambient oxygen to a more excited singlet state which reacts with the acceptor bead and emits light at 520 to 620 nm. The intensity of the signal is proportional to the level of γ3 associated pThr172 AMPK phosphorylation.
# In short, AMPK-α2+β2+γ3 MaxCyte bulk-transfected HEK293AD cells were thawed in growth media (DMEM High glucose+10% FBS) in a collagen-coated T150 flask and the cells were allowed to adhere and grow overnight in a 37° C. incubator. The following day, the cells were harvested and resuspended in plating medium (DMEM Low glucose+10% FBS) at a concentration of 100,000 cells per mL and 50 μL of this cell suspension was added to all wells of a 384-well plate using a Multidrop Combi. The cells were allowed to adhere and grow for 2 days in a 37° C. incubator. On assay day, compounds were diluted in 100% dimethyl sulfoxide (DMSO) in a 11 dose, half log dilution scheme and spotted in the cell plates at 1000× the final concentration. Compound incubations were performed in plating media for 20 minutes. Cells were washed with PBS, lysed and the signal was generated by subsequent additions of RB1 reagent from the kit, 1:1000 CaptSure γ3 labeled antibody in 1× immunoassay buffer, Anti-CaptSure acceptor beads and Streptavitin donor beads at final concentration of […]. The γ3 pThr172 AMPK signal was developed using EnVision™ multilabel reader (Perkin Elmer) using Alphascreen settings. The fluorescence emission was used to calculate the % effect relative to the HPE (30 μM) and ZPE (DMSO). EC50 curves were generated with the ActivityBase software using the XLfit model 205 to determine EC50 and Emax values.
# For screening purposes, bulk AMPK-α2+β2+γ3 MaxCyte bulk transfection into HEK293AD cells were generated to support SAR screening as follows.
# HEK293AD cells were seeded into 10 flasks at 2.7×10^7 cells per flask. The following day 12 mL of Trypl E dissociation reagent were added to each flask to lift the cells and the cells were then spun at 300×g for 5 minutes. Cells were washed once in MaxCyte EP buffer and then resuspended in MaxCyte EP buffer at 1×10^8 cells per mL. For transfection, 500×10^6 cells in 500 μl MaxCyte EP buffer were placed in a CL1.1 Processing Assembly (electroporation cell) with 1 mg/mL ([…]) of each of the plasmids pcDNA3.1(+)-human AMPK alpha 2, pcDNA3.1(+)-human AMPK beta 2 and pcDNA3.1(+)-human AMPK gamma 3 and the electroporation was carried out on the MaxCyte STX using the HEK293 electroporation protocol. Following electroporation, cells were transferred to a T175 flask containing growth medium (DMEM High glucose+10% FBS) and allowed to recover for 25 minutes, then the cells were resuspended to final volume of 900 mL and distributed into 6XT175 flasks and allowed to adhere and grow overnight in a 37° C. incubator. […]
# [1] = geometric mean of the asymptotic max
# T1 sequence (P54646 whole entry): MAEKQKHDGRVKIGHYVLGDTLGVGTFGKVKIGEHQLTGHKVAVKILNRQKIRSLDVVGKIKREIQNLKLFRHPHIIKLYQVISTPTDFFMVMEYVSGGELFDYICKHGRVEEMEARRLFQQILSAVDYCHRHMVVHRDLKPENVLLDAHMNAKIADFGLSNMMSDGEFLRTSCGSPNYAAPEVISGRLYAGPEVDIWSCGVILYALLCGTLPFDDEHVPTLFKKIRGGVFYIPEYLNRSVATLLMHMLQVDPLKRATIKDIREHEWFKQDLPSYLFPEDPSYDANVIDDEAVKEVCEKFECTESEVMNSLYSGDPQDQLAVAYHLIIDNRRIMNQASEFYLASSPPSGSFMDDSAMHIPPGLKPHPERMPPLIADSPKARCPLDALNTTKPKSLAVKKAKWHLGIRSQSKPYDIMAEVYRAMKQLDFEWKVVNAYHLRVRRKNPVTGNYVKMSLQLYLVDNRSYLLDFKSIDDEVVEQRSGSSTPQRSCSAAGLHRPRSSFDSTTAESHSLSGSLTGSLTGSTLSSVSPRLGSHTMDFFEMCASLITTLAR
# T1 sequence (O43741 whole entry): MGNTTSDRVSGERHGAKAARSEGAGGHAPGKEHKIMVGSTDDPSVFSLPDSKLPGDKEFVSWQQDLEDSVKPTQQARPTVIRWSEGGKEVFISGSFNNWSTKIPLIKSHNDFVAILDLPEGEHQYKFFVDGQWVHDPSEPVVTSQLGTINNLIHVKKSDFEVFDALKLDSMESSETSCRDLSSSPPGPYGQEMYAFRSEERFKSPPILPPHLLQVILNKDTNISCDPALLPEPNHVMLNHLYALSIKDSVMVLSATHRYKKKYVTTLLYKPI
# T1 sequence (Q9UGI9 whole entry): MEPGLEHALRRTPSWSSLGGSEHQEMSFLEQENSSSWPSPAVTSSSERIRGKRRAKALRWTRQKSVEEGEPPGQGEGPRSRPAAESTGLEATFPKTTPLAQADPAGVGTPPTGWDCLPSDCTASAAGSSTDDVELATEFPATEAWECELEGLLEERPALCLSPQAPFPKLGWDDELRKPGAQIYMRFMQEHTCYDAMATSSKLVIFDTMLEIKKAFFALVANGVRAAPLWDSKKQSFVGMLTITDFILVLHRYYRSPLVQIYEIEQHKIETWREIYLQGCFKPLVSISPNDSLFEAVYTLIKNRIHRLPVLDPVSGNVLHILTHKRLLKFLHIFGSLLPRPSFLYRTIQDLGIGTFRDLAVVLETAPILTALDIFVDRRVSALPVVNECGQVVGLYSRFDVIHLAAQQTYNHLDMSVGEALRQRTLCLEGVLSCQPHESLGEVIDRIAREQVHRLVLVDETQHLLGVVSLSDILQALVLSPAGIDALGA
Emax [1],EC50,Assay GMean Asy. Max (%) [1],SMILES
38.4%,19.8 nM,,"Cc1c(F)ccc(C2(C)CN(c3ccc(CO)cn3)C(=O)c3cnc(NC4CN(C(=O)[C@@H]5C[C@@H]5F)C4)c(F)c32)c1F (single isomer, unassigned) [compound 105]"
119%,32.7 nM,,"Cc1c(F)ccc(C2(C)CN(c3ccc(CO)cn3)C(=O)c3cnc(NC4CN(C(=O)N5C[C@@H]6C[C@H]5CO6)C4)c(F)c32)c1F (single isomer, unassigned) [compound 107]"
81.7%,76.2 nM,,"CN1CCC(F)(C(=O)N2CC[C@@H](Nc3ncc4c(c3F)C(C)(c3cccc(Cl)c3F)CN(c3ncccc3F)C4=O)C2)CC1 (single isomer, unassigned) [compound 109]"
159%,342 nM,,"CC1(c2cccc(Cl)c2F)CN(c2ncccc2F)C(=O)c2cnc(NC3CN(C(=O)[C@](C)(O)C(F)(F)F)C3)nc21 (single isomer, unassigned) [compound 111]"
112%,33.6 nM,,"C[C@]1(c2cccc(Cl)c2F)CN(c2ncccc2F)C(=O)c2cnc(NC3CN(C(=O)C4(O)CC4)C3)c(F)c21 [Example 1, (4R)-4-(3-Chloro-2-fluorophenyl)-5-fluoro-2-(3-fluoropyridin-2-yl)-6-{[1-(1-hydroxycyclopropane-1-carbonyl)azetidin-3-yl]amino}-4-methyl-3,4-dihydro-2,7-naphthyridin-1(2H)-one]"
81.7%,29.9 nM,,"Cn1cc(F)c(N2C[C@](C)(c3cccc(Cl)c3F)c3c(cnc(NC4CN(C(=O)[C@@H]5C[C@@H]5F)C4)c3F)C2=O)n1 [Example 2, (4R)-4-(3-chloro-2-fluorophenyl)-5-fluoro-6-({1-[(1S,2S)-2-fluorocyclopropane-1-carbonyl]azetidin-3-yl}amino)-2-(4-fluoro-1-methyl-1H-pyrazol-3-yl)-4-methyl-3,4-dihydro-2,7-naphthyridin-1(2H)-one]"
56%,112 nM,,"Cn1cnc(N2C[C@](C)(c3cccc(Cl)c3F)c3c(cnc(NC4CN(C(=O)C(C)(C)O)C4)c3F)C2=O)c1 [Example 3, (4R)-4-(3-Chloro-2-fluorophenyl)-5-fluoro-6-{[1-(2-hydroxy-2-methylpropanoyl)azetidin-3-yl]amino}-4-methyl-2-(1-methyl-1H-imidazol-4-yl)-3,4-dihydro-2,7-naphthyridin-1(2H)-one]"
96.3%,66.3 nM,,"C[C@]1(c2cccc(Cl)c2F)CN(c2ccc(CO)cn2)C(=O)c2cnc(NC3CN(C(=O)c4cccnn4)C3)c(F)c21 [Example 4, (4R)-4-(3-Chloro-2-fluorophenyl)-5-fluoro-2-[5-(hydroxymethyl)pyridin-2-yl]-4-methyl-6-{[1-(pyridazine-3-carbonyl)azetidin-3-yl]amino}-3,4-dihydro-2,7-naphthyridin-1(2H)-one]"
64.9%,27.7 nM,,"C[C@]1(c2cccc(Cl)c2F)CN(c2ccccn2)C(=O)c2cnc(NC3CN(C(=O)[C@@H]4C[C@@H]4F)C3)c(F)c21 [Example 5, (4R)-4-(3-chloro-2-fluorophenyl)-5-fluoro-6-({1-[(1S,2S)-2-fluorocyclopropane-1-carbonyl]azetidin-3-yl}amino)-4-methyl-2-(pyridin-2-yl)-3,4-dihydro-2,7-naphthyridin-1(2H)-one]"
58%,22.2 nM,,"C[C@]1(c2cccc(Cl)c2F)CN(c2ncccc2F)C(=O)c2cnc(NC3CN(C(=O)[C@@H]4C[C@@H]4F)C3)c(F)c21 [Example 6, (4R)-4-(3-chloro-2-fluorophenyl)-5-fluoro-6-({1-[(1S,2S)-2-fluorocyclopropane-1-carbonyl]azetidin-3-yl}amino)-2-(3-fluoropyridin-2-yl)-4-methyl-3,4-dihydro-2,7-naphthyridin-1(2H)-one]"
123%,144 nM,,"Cn1cc(F)c(N2C[C@](C)(c3cccc(Cl)c3F)c3c(cnc(NC4CN(C(=O)C5(O)CCC5)C4)c3F)C2=O)n1 [Example 7, (4R)-4-(3-Chloro-2-fluorophenyl)-5-fluoro-2-(4-fluoro-1-methyl-1H-pyrazol-3-yl)-6-{[1-(1-hydroxycyclobutane-1-carbonyl)azetidin-3-yl]amino}-4-methyl-3,4-dihydro-2,7-naphthyridin-1(2H)-one]"
58.2%,63.8 nM,,"Cn1cc(F)c(N2C[C@](C)(c3cccc(Cl)c3F)c3c(cnc(NC4CN(C(=O)[C@H]5C[C@@H]5F)C4)c3F)C2=O)n1 [Example 8, (4R)-4-(3-Chloro-2-fluorophenyl)-5-fluoro-6-({1-[(1R,2S)-2-fluorocyclopropane-1-carbonyl]azetidin-3-yl}amino)-2-(4-fluoro-1-methyl-1H-pyrazol-3-yl)-4-methyl-3,4-dihydro-2,7-naphthyridin-1(2H)-one]"
160%,22.7 nM,,"CN(C(=O)CN1CC(Nc2ncc3c(c2F)[C@@](C)(c2cccc(Cl)c2F)CN(c2nn(C)cc2F)C3=O)C1)C1CC1 [Example 11, 2-(3-{[(5R)-5-(3-Chloro-2-fluorophenyl)-4-fluoro-7-(4-fluoro-1-methyl-1H-pyrazol-3-yl)-5-methyl-8-oxo-5,6,7,8-tetrahydro-2,7-naphthyridin-3-yl]amino}azetidin-1-yl)-N-cyclopropyl-N-methylacetamide]"
77.9%,43.5 nM,,"Cn1cc(F)c(N2C[C@](C)(c3cccc(Cl)c3F)c3c(cnc(NC4CN(C(=O)CN5CCCC5)C4)c3F)C2=O)n1 [Example 12, (4R)-4-(3-Chloro-2-fluorophenyl)-5-fluoro-2-(4-fluoro-1-methyl-1H-pyrazol-3-yl)-4-methyl-6-({1-[(pyrrolidin-1-γ1)acetyl]azetidin-3-yl}amino)-3,4-dihydro-2,7-naphthyridin-1(2H)-one]"
,108 nM,46.2%,"CC(C)NCC(=O)N1CC(Nc2ncc3c(c2F)[C@@](C)(c2cccc(Cl)c2F)CN(c2nn(C)cc2F)C3=O)C1 [Example 13, (4R)-4-(3-Chloro-2-fluorophenyl)-5-fluoro-2-(4-fluoro-1-methyl-1H-pyrazol-3-yl)-4-methyl-6-[(1-{[(propan-2-γ1)amino]acetyl}azetidin-3-γ1)amino]-3,4-dihydro-2,7-naphthyridin-1(2H)-one]"
69.4%,33.7 nM,,"C[C@]1(c2cccc(Cl)c2F)CN(c2cc(F)c(CN)cc2F)C(=O)c2cnc(NC3CN(C(=O)[C@@H]4C[C@@H]4F)C3)c(F)c21 [Example 14, (4R)-2-[4-(aminomethyl)-2,5-difluorophenyl]-4-(3-chloro-2-fluorophenyl)-5-fluoro-6-({1-[(1S,2S)-2-fluorocyclopropane-1-carbonyl]azetidin-3-yl}amino)-4-methyl-3,4-dihydro-2,7-naphthyridin-1(2H)-one]"
61.5%,31.5 nM,,"C[C@]1(c2cccc(Cl)c2F)CN(c2ccc(N)cn2)C(=O)c2cnc(NC3CN(C(=O)[C@@H]4C[C@@H]4F)C3)c(F)c21 [Example 15, (4R)-2-(5-aminopyridin-2-yl)-4-(3-chloro-2-fluorophenyl)-5-fluoro-6-({1-[(1S,2S)-2-fluorocyclopropane-1-carbonyl]azetidin-3-yl}amino)-4-methyl-3,4-dihydro-2,7-naphthyridin-1(2H)-one]"
